In experiment [1] the target is T1, SARS-CoV-2 PLpro (nsp3 1564–1878) (Severe acute respiratory syndrome coronavirus 2, UniProt P0DTD1). The experiment is described as follows: biochemical. Set-up: FRET-quenched peptide (Pro3) cleavage by PLpro, 10 min pre-incubation, slope over 20 min, normalised to no-compound control. The following applies: low concentration screen, read-out: % of control remaining.

Experiment [2] has as its target T1, SARS-CoV-2 PLpro (nsp3 1564–1878). Description: biochemical. Set-up: FRET-quenched peptide (Pro3) cleavage by PLpro, 10 min pre-incubation, slope over 20 min, normalised to no-compound control. The following applies: high concentration screen, read-out: % of control remaining.

Counter-ions that a name gives are not always drawn. Like-named read-outs stand apart in the source and are kept apart here.

Our source for the remaining activity values is publication PMC8286840, “Identifying SARS-CoV-2 antiviral compounds by screening for small molecule inhibitors of Nsp3 papain-like protease” (Biochemical Journal, 2021).

In the case of `O=C1C[C@@H](c2ccccc2)Oc2cc(O)cc(O)c21` [Pinocembrin], the remaining activity at 1.25 µM in experiment [1] (Well no.=3587) is 99.6%. Besides, the remaining activity at 3.75 µM in experiment [2] (Well no.=3587) stood at 98.4%.
`CCc1ccc(CCOc2ccc(CC3SC(=O)NC3=O)cc2)nc1` (centres unmarked) [Pioglitazone]: in experiment [1] (Well no.=1718), the remaining activity at 1.25 µM stood at 98.7%. Besides, the remaining activity at 3.75 µM in experiment [2] (Well no.=1718) turned out to be 98%.
Regarding `O=C(O)C1CCCCN1` (centres unmarked) [Pipecolic acid], in experiment [1] (Well no.=6929), the remaining activity at 1.25 µM stood at 103%. Also, the remaining activity at 3.75 µM in experiment [2] (Well no.=6929) amounted to 102%.
Take `CCN1CCN(C(=O)N[C@@H](C(=O)N[C@@H]2C(=O)N3[C@@H]2SC(C)(C)[C@@H]3C(=O)O)c2ccccc2)C(=O)C1=O` [Piperacillin (sodium)]: the remaining activity at 1.25 µM in experiment [1] (Well no.=8072) came to 96.2%. For the same compound, the remaining activity at 3.75 µM in experiment [2] (Well no.=8072) turned out to be 91.7%.
Take `CCN1CCN(C(=O)N[C@@H](C(=O)N[C@@H]2C(=O)N3[C@@H]2SC(C)(C)[C@@H]3C(=O)O)c2ccccc2)C(=O)C1=O` [Piperacillin]: the remaining activity at 1.25 µM in experiment [1] (Well no.=2107) came out at 104%. Also, the remaining activity at 3.75 µM in experiment [2] (Well no.=2107) turned out to be 104%.
With `O=S(=O)(O)C1CCNCC1` [Piperidine-4-sulphonic acid], the remaining activity at 1.25 µM in experiment [1] (Well no.=1449) turned out to be 99.5%. Besides, the remaining activity at 3.75 µM in experiment [2] (Well no.=1449) turned out to be 94.6%.
As to `O=C(/C=C/C=C/c1ccc2c(c1)OCO2)N1CCCCC1` [Piperine], the remaining activity at 1.25 µM is 92.8% in experiment [1] (Well no.=3110) and 99.3% in experiment [1] (Well no.=8242). Also, the remaining activity at 3.75 µM was 94.5% in experiment [2] (Well no.=3110) and 96.3% in experiment [2] (Well no.=8242).
In the case of `c1ccc2c(c1)OCC(CN1CCCCC1)O2` (centres unmarked) [Piperoxan (hydrochloride)], in experiment [1] (Well no.=7383), the remaining activity at 1.25 µM turned out to be 106%. For the same compound, the remaining activity at 3.75 µM in experiment [2] (Well no.=7383) was determined as 105%.
With `NC(=O)CN1CCCC1=O` [Piracetam], the remaining activity at 1.25 µM in experiment [1] (Well no.=1100) was 96.7%. The remaining activity at 3.75 µM in experiment [2] (Well no.=1100) was 97.5%.
`Cc1nc2ccccn2c(=O)c1CCN1CCC(C(=O)c2ccc(F)cc2)CC1` [Pirenperone]: the remaining activity at 1.25 µM in experiment [1] (Well no.=1359) stood at 101%. Besides, in experiment [2] (Well no.=1359), the remaining activity at 3.75 µM was determined as 102%.
Regarding `Cc1ccc(=O)n(-c2ccccc2)c1` [Pirfenidone], in experiment [1] (Well no.=904), the remaining activity at 1.25 µM worked out at 107%. Besides, the remaining activity at 3.75 µM in experiment [2] (Well no.=904) was 109%.
On to `c1cnc(N2CCN(Cc3ccc4c(c3)OCO4)CC2)nc1` [Piribedil maleate], for which the remaining activity at 1.25 µM in experiment [1] (Well no.=1163) turned out to be 96.1%. The remaining activity at 3.75 µM in experiment [2] (Well no.=1163) was determined as 96.2%.
As to `c1cnc(N2CCN(Cc3ccc4c(c3)OCO4)CC2)nc1` [Piribedil.2HCl], the remaining activity at 1.25 µM in experiment [1] (Well no.=1841) was determined as 96.6%. Moreover, the remaining activity at 3.75 µM in experiment [2] (Well no.=1841) was 95.4%.
Regarding `CN1C(C(=O)Nc2ccccn2)=C(O)c2ccccc2S1(=O)=O` [Piroxicam], the remaining activity at 1.25 µM in experiment [1] (Well no.=862) is 99.8%; in experiment [1] (Well no.=1566), 98.4%. Also, the remaining activity at 3.75 µM stood at 103% in experiment [2] (Well no.=862) and 99.8% in experiment [2] (Well no.=1566).
With `O=C(O)C[C@H](O)C[C@H](O)/C=C/c1c(C2CC2)nc2ccccc2c1-c1ccc(F)cc1` [Pitavastatin Calcium], in experiment [1] (Well no.=8334), the remaining activity at 1.25 µM came out at 97.4%. For the same compound, the remaining activity at 3.75 µM in experiment [2] (Well no.=8334) came to 95.7%.
Take `Clc1ccc(CCCOCCCN2CCCCC2)cc1` [Pitolisant (hydrochloride)]: the remaining activity at 1.25 µM in experiment [1] (Well no.=6225) came to 100%. Moreover, the remaining activity at 3.75 µM in experiment [2] (Well no.=6225) stood at 101%.
Turning to `CC(C)(C)C(=O)OCOC(=O)[C@@H]1N2C(=O)[C@@H](/N=C/N3CCCCCC3)[C@H]2SC1(C)C` [Pivmecillinam], the remaining activity at 1.25 µM in experiment [1] (Well no.=5414) is 93.3%. In experiment [2] (Well no.=5414), the remaining activity at 3.75 µM is 98.6%.
For `CN1CCC(=C2c3ccccc3CCc3sccc32)CC1` [Pizotifen], the remaining activity at 1.25 µM in experiment [1] (Well no.=7531) was 103%. In addition, in experiment [2] (Well no.=7531), the remaining activity at 3.75 µM came out at 91.1%.
In the case of `c1cc(CN2CCCNCCNCCCNCC2)ccc1CN1CCCNCCNCCCNCC1` [Plerixafor (octahydrochloride)], the remaining activity at 1.25 µM in experiment [1] (Well no.=8020) was found to be 95.7%; in experiment [1] (Well no.=8097), 104%; in experiment [1] (Well no.=8749), 100%. In addition, the results for the remaining activity at 3.75 µM in experiment [2] (Well no.=8020), in experiment [2] (Well no.=8097) and in experiment [2] (Well no.=8749) were 94.1%, 101% and 100%, respectively.
For `c1cc(CN2CCCNCCNCCCNCC2)ccc1CN1CCCNCCNCCCNCC1` [Plerixafor], the remaining activity at 1.25 µM was 101% in experiment [1] (Well no.=6893), 91.6% in experiment [1] (Well no.=8356) and 98.3% in experiment [1] (Well no.=8751). Further, the remaining activity at 3.75 µM is 92.1% in experiment [2] (Well no.=8356) and 99.2% in experiment [2] (Well no.=8751).
Turning to `CO[C@H](C(=O)[C@@H](O)[C@@H](C)O)[C@@H]1Cc2cc3cc(O[C@H]4C[C@@H](O[C@@H]5C[C@@H](O)[C@H](O)[C@@H](C)O5)[C@H](O)[C@@H](C)O4)c(C)c(O)c3c(O)c2C(=O)[C@H]1O[C@H]1C[C@@H](O[C@@H]2C[C@@H](O)[C@@H](O[C@@H]3C[C@](C)(O)[C@H](O)[C@@H](C)O3)[C@@H](C)O2)[C@H](O)[C@@H](C)O1` [Plicamycin], the remaining activity at 1.25 µM in experiment [1] (Well no.=1666) amounted to 107%. The remaining activity at 3.75 µM in experiment [2] (Well no.=1666) was 106%.
For `CC(C)(C)c1[nH]cnc1/C=c1\[nH]c(=O)/c(=C/c2ccccc2)[nH]c1=O` [Plinabulin (NPI-2358)], the remaining activity at 1.25 µM in experiment [1] (Well no.=4834) turned out to be 99%. The remaining activity at 3.75 µM in experiment [2] (Well no.=4834) amounted to 102%.
For `CC1=CC(=O)c2c(O)cccc2C1=O` [Plumbagin], in experiment [1] (Well no.=3351), the remaining activity at 1.25 µM was 85.5%. Besides, in experiment [2] (Well no.=3351), the remaining activity at 3.75 µM came out at 79.6%.
Regarding `C[C@]1(C(=O)O)CCC[C@]2(C)c3cc(O)ccc3CC[C@@H]12` [Podocarpic acid], in experiment [1] (Well no.=3296), the remaining activity at 1.25 µM is 94%. For the same compound, the remaining activity at 3.75 µM in experiment [2] (Well no.=3296) amounted to 96.2%.
For the compound `COc1cc([C@@H]2c3cc4c(cc3[C@H](O)[C@H]3COC(=O)[C@H]23)OCO4)cc(OC)c1OC` [Podophyllotoxin], the remaining activity at 1.25 µM was 91.2% in experiment [1] (Well no.=1002) and 99.5% in experiment [1] (Well no.=3705). Moreover, the remaining activity at 3.75 µM was found to be 92.3% in experiment [2] (Well no.=1002) and 105% in experiment [2] (Well no.=3705).
Turning to `OC[C@H]1O[C@@H](Oc2cc(O)cc(/C=C/c3ccc(O)cc3)c2)[C@H](O)[C@@H](O)[C@@H]1O` [Polydatin], the values for the remaining activity at 1.25 µM in experiment [1] (Well no.=6304) and in experiment [1] (Well no.=8196) were 100% and 102%, respectively. Moreover, the values for the remaining activity at 3.75 µM in experiment [2] (Well no.=6304) and in experiment [2] (Well no.=8196) were 98.5% and 97.4%, respectively.
Turning to `Nc1cccc2c1C(=O)N(C1CCC(=O)NC1=O)C2=O` (centres unmarked) [Pomalidomide], the remaining activity at 1.25 µM in experiment [1] (Well no.=4963) turned out to be 100%. The remaining activity at 3.75 µM in experiment [2] (Well no.=4963) amounted to 96.3%.
Take `Cc1ccc(C(=O)Nc2ccc(CN3CCN(C)CC3)c(C(F)(F)F)c2)cc1C#Cc1cnc2cccnn12` [Ponatinib (AP24534)]: in experiment [1] (Well no.=4913), the remaining activity at 1.25 µM turned out to be 98.1%. Also, the remaining activity at 3.75 µM in experiment [2] (Well no.=4913) was 95.4%.
